Measured values taken from patent US20190365951A1, “HUMAN CARDIAC TISSUE CONSTRUCT, RELATED METHODS AND USES” (FUNDACIÓ INSTITUTE DE BIOENGINYERIA DE CATALUNYA (IBEC), priority 2018, published 2019).

What was measured:
CardioSlice constructs [1] = tested on: CardioSlice constructs
Description: All chemicals were dissolved in distilled water to make stock solutions, and serial dilutions were made in RPMI (Invitrogen) culture medium. To test changes in the β-adrenergic response, 1 μM isoproterenol was injected to the bioreactor circuit through the luer injection port (Inycom). For cholinergic stimulation, 10 μM carbachol was injected, and sotalol was added at 10 μM to evaluate the blockade of hERG current (Braam, S. R. et al, 2013). Spontaneous activity of cardiac constructs was recorded as baseline period. Cardiac constructs were treated with pharmacological agents during 10 min for immediate analysis, followed by 5 min washout for isoproterenol and carbachol, and 15 min for sotalol.
Electrocardiogram (ECG)-like signals were acquired through the three electrodes configuration built in the custom-made cell culture chamber and using an advanced transducer amplifier. The gold electrode acted as internal reference, and electrical activity of cardiac macrotissues was acquired using the gold and graphite electrodes. In particular, “Amplifier I” acquires activity between: “Graphite+ and Reference”; and “Amplifier II” acquires activity between: “Graphite+ and Graphite−” (FIG. 8). The obtained ECG-like signal is generated by the sum of the synchronized action potentials of all cardiomyocytes. Its shape is similar to regular surface ECG signals for humans, including the presence of the QRS complex and T wave (FIG. 4a). […] ECG-like signal recordings were monitored and stored in a computer using the AcqKnowledge software v.4.1 (BIOPAC, Santa Barbara, Calif., USA), and were analyzed with MATLAB (v. R2014b, Natick, Mass., USA). ECG-like signals were recorded at a sampling frequency of 12.5 kHz, and were filtered and decimated at a sampling rate of 500 Hz.
Recorded ECG-like signals were bandpass filtered (zero-phase fourth-order Butterworth filter with cut-off frequencies of 0.2 and 125 Hz), to use the main bandwidth of the classical electrocardiographic studies. […] Beat-to-beat fiducial points were detected and then signal averaging techniques were applied to estimate the main pattern of each ECG-like signal, enabling analysis and interpretation of QRS complex, T wave and QT interval (FIG. 4a and FIG. 5c).
During the experiments involving drug treatment, instantaneous beat rate expressed as beats per minute (bpm) was calculated over ECG-like signals, generated in both control and CardioSlice constructs at baseline and after drug application. Beat rate was assessed by measuring the RR interval, which is the time elapsing between two consecutive R waves in the electrocardiogram. Relative beat rate to baseline was calculated to evaluate the behavior of cardioactive drug effects.

hERG ion channels = hERG ion channels (Homo sapiens, UniProt Q12809); details: HEK293, CHO; Mathur, A. et al, 2015; cited from earlier work
[2] = tested on: Control constructs (non-stimulated human cardiac macrotissues); experiment: ECG-like signal recording of non-stimulated human cardiac macrotissues under drug treatment; format: cell-based; details: 10 μM sotalol, 10 min treatment, day 14 of culture
Excerpt: Isoproterenol, carbachol and sotalol were purchased from Sigma-Aldrich.

CardioSlice constructs [3] = experiment: Chronotropic/contractile response by video area-oscillation analysis (custom MATLAB program); format: cell-based, human
Description: FIG. 11. Chronotropic responses of human cardiac macrotissues to the proarrhythmic drug sotalol. Changes in the beat rate were analyzed through custom MATLAB program at different incubation times (from 0 min to 40 min). The area in pixels of each construct was obtained, and its oscillation was represented over time (relative to the highest number of pixels recorded). (a) Sotalol effects on non-stimulated cardiac constructs (Control). (b) Sotalol effects on electrically stimulated cardiac constructs (CardioSlice).
Contractile function of cardiac macrotissues in spontaneous beating and in response to electric field stimulation was assessed in a set-up equivalent to one previously described (Tandon, N. et al, 2009; Tandon, N. et al, 2011). […] The space between the electrodes was filled with Tyrode's salts solution (Sigma-Aldrich Quimica), and cardiac macrotissues were imaged and video recorded using a Stereo Microscope Leica MZ10F (Leica Microsystems) with a DFC4025C Digital Microscope Camera (Leica Microsystems). […] To measure the amplitude of contraction of each cardiac macrotissue, spontaneous beating of the constructs was recorded for at least 10 s. Then, the Fractional Area Change (FAC) of 10 beats was calculated using a custom MATLAB program (v. R2014b, Natick, Mass., USA) as previously described (Tandon, N. et al., 2009). […]

Chain of hERG ion channels (Q12809 whole entry): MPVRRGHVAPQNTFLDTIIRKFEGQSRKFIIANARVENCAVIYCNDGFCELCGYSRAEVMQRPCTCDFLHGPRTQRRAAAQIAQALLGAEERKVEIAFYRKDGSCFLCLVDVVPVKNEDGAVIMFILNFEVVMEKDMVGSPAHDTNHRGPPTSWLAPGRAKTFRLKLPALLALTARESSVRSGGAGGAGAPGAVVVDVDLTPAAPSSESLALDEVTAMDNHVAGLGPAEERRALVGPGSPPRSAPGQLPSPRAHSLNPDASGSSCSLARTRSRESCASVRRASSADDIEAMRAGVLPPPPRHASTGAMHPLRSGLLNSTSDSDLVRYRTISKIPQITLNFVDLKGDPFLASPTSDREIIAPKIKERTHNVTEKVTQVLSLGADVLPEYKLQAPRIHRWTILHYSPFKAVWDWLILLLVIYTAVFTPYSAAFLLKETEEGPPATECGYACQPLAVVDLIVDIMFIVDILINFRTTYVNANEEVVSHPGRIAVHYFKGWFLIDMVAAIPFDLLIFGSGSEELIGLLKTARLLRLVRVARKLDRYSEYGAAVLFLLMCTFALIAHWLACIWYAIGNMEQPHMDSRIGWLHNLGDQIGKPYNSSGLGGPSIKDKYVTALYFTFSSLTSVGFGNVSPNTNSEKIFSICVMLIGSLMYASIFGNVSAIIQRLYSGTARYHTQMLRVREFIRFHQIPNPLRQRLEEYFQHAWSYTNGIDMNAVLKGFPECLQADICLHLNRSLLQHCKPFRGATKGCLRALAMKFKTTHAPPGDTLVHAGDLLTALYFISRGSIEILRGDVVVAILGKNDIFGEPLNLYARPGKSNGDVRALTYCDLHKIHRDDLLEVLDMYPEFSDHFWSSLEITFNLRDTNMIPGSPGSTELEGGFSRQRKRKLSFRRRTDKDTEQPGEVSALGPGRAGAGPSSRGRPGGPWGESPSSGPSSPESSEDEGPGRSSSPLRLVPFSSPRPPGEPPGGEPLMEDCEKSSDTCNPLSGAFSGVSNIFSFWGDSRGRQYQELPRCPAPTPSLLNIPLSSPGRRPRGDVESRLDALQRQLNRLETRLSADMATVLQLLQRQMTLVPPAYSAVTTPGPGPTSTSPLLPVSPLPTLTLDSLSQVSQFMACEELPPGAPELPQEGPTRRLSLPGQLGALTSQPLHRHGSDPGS

CC(C)NCC(O)c1ccc(O)c(O)c1 (stereo not drawn) [isoproterenol]
RR intervals (CardioSlice constructs [1]; 1 μM isoproterenol, 10 min incubation): decreased | beating rate (CardioSlice constructs [1]; 1 μM isoproterenol, 10 min incubation, relative to baseline): statistically significant increment

COc1cc2nc(N(C)CCCNC(=O)C3CCCO3)nc(N)c2cc1OC (stereo not drawn) [alfuzosin]
outcome of hERG safety assay versus actual cardiac safety (hERG ion channels): false negatives

C[N+](C)(C)CCOC(N)=O [carbachol]
beating frequency (CardioSlice constructs [1]; 10 μM carbachol, 10 min incubation, relative to baseline): statistically significant decrease

CC(C)NCC(O)c1ccc(NS(C)(=O)=O)cc1 (stereo not drawn) [sotalol]
beating frequency [2]: random increases and decreases | morphology of ECG-like signals [2]: no alteration | chronotropic response (beat rate changes) (CardioSlice constructs [3]; sotalol, incubation times from 0 min to 40 min): a negative chronotropic effect can be observed, followed by a progressive emergence of cardiac arrhythmias | contractile patterns (mechanical level) (CardioSlice constructs [3]; sotalol-treated CardioSlice constructs): dyssynchronous contractile patterns | increase of the QT interval (prolongation) (CardioSlice constructs [1]; human, 10 μM): greater than 20%
